Measured values: US8492383B2 (Jewish General Hospital, priority 2002, dated 2013)
Where “and” joins values, the source holds several entries; their conditions need not be identical. Equal values may be shown once.

Key:
[1] = system: I83 cell line; details: drug alone, MTT 72 hours
[2] = system: lymphocytes from CLL patients; assay: MTT cytotoxic assay, lymphocytes from CLL patients; type: cell-based, human; details: drug alone

O=C(O)CCCc1ccc(N(CCCl)CCCl)cc1 [CLB, chlorambucil]
LD50 [1]: 40.66 µM and 40.66 ± 2.80 µM | LD50 ([2]; CLL patient T^1 (previously treated with CLB)): 9.29 µM | LD50 ([2]; CLL patient T^2 (previously treated with CLB)): 23.1 µM | LD50 ([2]; CLL patient T^3 (previously treated with CLB)): 5.56 µM | LD50 ([2]; CLL patient T^4 (previously treated with CLB)): 79.7 µM | LD50 ([2]; CLL patient T^5 (previously treated with CLB)): 49.2 µM | LD50 ([2]; CLL patient U^1 (untreated)): 14.6 µM | LD50 ([2]; CLL patient U^2 (untreated)): 28.49 µM | LD50 ([2]; CLL patient U^3 (untreated)): 20.02 µM | LD50 ([2]; CLL patient U^4 (untreated)): 54.2 µM | LD50 ([2]; CLL patient U^5 (untreated)): 12.27 µM | LD50 ([2]; CLL patient U^6 (untreated)): 18.08 µM | LD50 ([2]; CLL patient U^7 (untreated)): 7.84 µM
